Results reported in ChEMBL document CHEMBL1201862, “PubChem BioAssay data set” (2004).
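Assay format: 96-well plates, 48-hour exposure. Here, GI50 denotes the concentration required for 50% inhibition of growth.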 The source made the active and inactive calls. Rule as the data show it: active = GI50 up to about 1.1 µM and inactive = higher.

Key:
Assay in all cases: NCI-60 cell line screen, 48 h
[1] = test system: UACC-257
[2] = test system: NCI-H226
[3] = test system: COLO 205
[4] = test system: SK-OV-3
[5] = test system: SK-MEL-28
[6] = test system: SNB-78
[7] = test system: TK-10
[8] = test system: OVCAR-3
[9] = test system: M14
[10] = test system: ACHN
[11] = test system: SK-MEL-5
[12] = test system: 786-0
[13] = test system: NCI-H522
[14] = test system: A498
[15] = test system: HCC 2998
[16] = test system: M19-MEL
[17] = test system: LXFL 529
[18] = test system: OVCAR-8
[19] = test system: SW-620
[20] = test system: HCT-116
[21] = test system: RPMI-8226
[22] = test system: SF-295
[23] = test system: HL-60
[24] = test system: DMS-114
[25] = test system: HOP-92
[26] = test system: HOP-62
[27] = test system: LOX IMVI
[28] = test system: Malme-3M
[29] = test system: RXF 393
[30] = test system: CAKI-1
[31] = test system: HT-29
[32] = test system: KM-20L2
[33] = test system: UACC-62
[34] = test system: SK-MEL-2
[35] = test system: NCI-H460
[36] = test system: SF-539
[37] = test system: SF-268
[38] = test system: EKVX
[39] = test system: RXF 631
[40] = test system: U-251
[41] = test system: OVCAR-5
[42] = test system: SN12C
[43] = test system: HCT-15
[44] = test system: DLD-1
[45] = test system: MOLT-4
[46] = test system: OVCAR-4
[47] = test system: DMS-273
[48] = test system: IGROV-1
[49] = test system: SNB-75
[50] = test system: A549
[51] = test system: UO-31
[52] = test system: NCI-H23
[53] = test system: SR

O=[N+]([O-])c1ccc(/C(Cl)=C/c2ccc(/C=C(\Cl)c3ccc([N+](=O)[O-])cc3[N+](=O)[O-])cc2)c([N+](=O)[O-])c1
GI50 [1]: > 100 µM (inactive)
GI50 [2]: > 100 µM (inactive)
GI50 [3]: > 100 µM (inactive)
GI50 [4]: > 100 µM (inactive)
GI50 [5]: > 100 µM (inactive)
GI50 [6]: > 100 µM (inactive)
GI50 [7]: > 100 µM (inactive)
GI50 [8]: 0.729 µM (active)
GI50 [9]: > 100 µM (inactive)
GI50 [10]: > 100 µM (inactive)
GI50 [11]: > 100 µM (inactive)
GI50 [12]: > 100 µM (inactive)
GI50 [13]: > 100 µM (inactive)
GI50 [14]: > 100 µM (inactive)
GI50 [15]: > 100 µM (inactive)
GI50 [16]: > 100 µM (inactive)
GI50 [17]: > 100 µM (inactive)
GI50 [18]: > 100 µM (inactive)
GI50 [19]: > 100 µM (inactive)
GI50 [20]: > 100 µM (inactive)
GI50 [21]: > 100 µM (inactive)
GI50 [22]: > 100 µM (inactive)
GI50 [23]: 57.4 µM (inactive)
GI50 [24]: > 100 µM (inactive)
GI50 [25]: > 100 µM (inactive)
GI50 [26]: > 100 µM (inactive)
GI50 [27]: > 100 µM (inactive)
GI50 [28]: > 100 µM (inactive)
GI50 [29]: > 100 µM (inactive)
GI50 [30]: > 100 µM (inactive)
GI50 [31]: > 100 µM (inactive)
GI50 [32]: 0.188 µM (active)
GI50 [33]: > 100 µM (inactive)
GI50 [34]: > 100 µM (inactive)
GI50 [35]: > 100 µM (inactive)
GI50 [36]: > 100 µM (inactive)
GI50 [37]: > 100 µM (inactive)
GI50 [38]: > 100 µM (inactive)
GI50 [39]: > 100 µM (inactive)
GI50 [40]: > 100 µM (inactive)
GI50 [41]: > 100 µM (inactive)
GI50 [42]: > 100 µM (inactive)
GI50 [43]: > 100 µM
GI50 [44]: > 100 µM (inactive)
GI50 [45]: > 100 µM (inactive)
GI50 [46]: > 100 µM (inactive)
GI50 [47]: > 100 µM (inactive)
GI50 [48]: > 100 µM (inactive)
GI50 [49]: > 100 µM (inactive)
GI50 [50]: > 100 µM (inactive)
GI50 [51]: > 100 µM (inactive)
GI50 [52]: > 100 µM (inactive)
GI50 [53]: > 100 µM (inactive)
